From patent US20180037871A1, “CANCER INITIATING CELL AND USE THEREOF” (priority 2016, published 2018)
“Also recorded” adds a separate entry of the source. Where two headings read alike, the source gives them in different places.

What was measured:
[1] = system: blood vessel formation induced by C1 clone; test: Chick chorioallantoic membrane (CAM) assay of C1 clone; format: in vivo, chicken; details: 2 μM Tie2 kinase inhibitor, C1 clone 1×10^6 cells on CAM
Experimental: Fertilized chicken eggs were incubated at 37° C. in an atmosphere of 80% humidity. At day 8 of the development, 1×10^6 cells were loaded onto a membrane and implanted on the top of the growing CAM. At day 11, CAM was fixed with 4% paraformaldehyde, and photographed using a stereomicroscope and digital camera. Branching points were quantified using NIH Image J software with the angiogenesis plugin.
At day 11, CAM was fixed with 4% paraformaldehyde, and photographed using a stereomicroscope and a digital camera. Branching points were quantified using NIH Image J software with the angiogenesis plugin.

[2] = system: C1 clone tumor; test: Xenograft tumor assay of C1 clone; format: in vivo; details: 50 mg/kg BW ip once every two days, 1×10^5 C1 cells sc, SCID mice, volume recorded day 10 to 25
Excerpt: All animal experiments were reviewed and approved by the Institutional Animal Care and Use Committee of National Taiwan University College of Medicine. For teratoma formation assay, 1×10^6 cells of CAR^+/mPSCs^Oct-4^_^hi C1, E9, and C7 clones were subcutaneously injected into 8-week-old male severe combined immunodeficiency (SCID) mice. For limiting dilution transplantation experiment, the C1 clone (10^5, 10^4, 10^3 and 10^2 cells) or CAR^+/mPSCs (10^6 cells) were subcutaneously injected into SCID mice. For C1-GFP clone and A549 cells derived tumor experiments. C1-GFP clone (1×10^5 cells) or A549 (1×10^6 cells) were subcutaneously injected into SCID mice. Tumor dimensions were measured using calipers once every 3 d, and volumes (cm^3) were calculated according to the standard formula: length×width^2/2. At the end of the experiment, the tumors were surgically excised and photographed. In metastasis assay, 3×10^5 cells of C1 clone, and CAR^+/mPSCs were injected into the lateral tail vein of SCID mice. Lung metastatic nodules were evaluated at week 5 by necropsy and histological examination. […]
1×10^5 cells of CAR^+/mPSCs^Oct-4^_^hi C1 clone were subcutaneously injected into 8-week-old male severe combined immunodeficiency (SCID) mice. […] Tumor dimensions were measured using calipers once every 2 or 3 d, and volumes (cm^3) were calculated according to the standard formula: length×width^2/2. […]

[3] = system: CAR+/mPSCs^Oct-4_hi C1 clone; test: Cell viability assay (WST-1), C1 clone; format: cell-based, mouse; details: 48 h, mean ± SD
Experimental: (§1) Cells were seeded at 3×10^3 cells per well in 96-well plates and incubated for 18 h. Cells were treated with cisplatin (Sigma-Aldrich) or paclitaxel (Sigma-Aldrich) at various concentrations. After 48 h, WST-1 assay (Roche) was performed to determine cell viability according to the manufacturer's instructions. Cell viability was expressed as a percentage of the non-treated group, and the IC50 values were determined.

[4] = system: CAR+/mPSCs^Oct-4_hi E9 clone; test: Cell viability assay (WST-1), E9 clone; format: cell-based, mouse; details: 48 h, mean ± SD
Experimental: as §1

[5] = system: CAR+/mPSCs^Oct-4_hi C7 clone; test: Cell viability assay (WST-1), C7 clone; format: cell-based, mouse; details: 48 h, mean ± SD
Experimental: as §1

[6] = system: A549 cells; test: Cell viability assay (WST-1), A549 cells; format: cell-based, human; details: 48 h, mean ± SD
Experimental: as §1

[7] = system: CAR+/mPSCs^Oct-4_hi C1, E9, and C7 clones; test: Cell viability assay (WST-1), C1, E9 and C7 clones together; format: cell-based, mouse; details: for IC50: range over C1, E9, and C7 clones, 48 h
Experimental: as §1

[8] = Mus musculus, read-out: IC50 of paclitaxel
[9] = IC50 in C1, E9, C7 clones versus A549 cells

Q: `COc1ccc2cc(-c3nc(-c4ccc([S+](C)[O-])cc4)[nH]c3-c3ccncc3)ccc2c1` (stereo not drawn) [Tie2 kinase inhibitor] was tested. Which “blood vessel formation (branch point number)” value [1] did it give?
A: inhibited the blood vessel formation; also recorded: decreases the blood vessel formation induced by C1 clone

Q: What about the “tumor volume / tumor growth” value [2] of the same compound?
A: the tumor growth of C1 clone is inhibited

Q: What about the “tumor volume / tumor growth” value ([2]; listed as Tie2 inhibitor) of the same compound?
A: significantly reduced the tumor volume

Q: How did the IC50 [3, 8] turn out when `CC(=O)O[C@H]1C(=O)[C@@]2(C)[C@H]([C@H](OC(=O)c3ccccc3)[C@]3(O)C[C@H](OC(=O)[C@H](O)[C@@H](NC(=O)c4ccccc4)c4ccccc4)C(C)=C1C3(C)C)[C@]1(OC(C)=O)CO[C@@H]1C[C@@H]2O` [Paclitaxel, paclitaxel] was run?
A: 0.0472 ± 0.002 µM

Q: What about the IC50 [4, 8] of the same compound?
A: 0.0432 ± 0.0036 µM

Q: What about the IC50 [5, 8] of the same compound?
A: 0.045 ± 0.0025 µM

Q: What about the IC50 ([6]; Homo sapiens, read-out: IC50 of paclitaxel) of the same compound?
A: 0.0082 ± 0.0035 µM

Q: What about the “IC50 of paclitaxel higher than that of the A549 cells” value [7, 9] of the same compound?
A: approximately 6 fold

Q: And the IC50 [7, 8]?
A: 0.0432 to 0.0472 µM

Q: `N.N.[Cl][Pt][Cl]` [Cisplatin, cisplatin] was tested. Which IC50 ([3]; read-out: IC50 of cisplatin) did it give?
A: 34.7 ± 1.4 µM

Q: And the IC50 ([4]; read-out: IC50 of cisplatin)?
A: 26.4 ± 2.3 µM

Q: What about the IC50 ([5]; read-out: IC50 of cisplatin) of the same compound?
A: 32.7 ± 1.6 µM

Q: And the IC50 ([6]; read-out: IC50 of cisplatin)?
A: 13.5 ± 2.2 µM

Q: And the “resistance to cisplatin compared to the A549 cells” value [7, 9]?
A: 2-3 fold

Q: What about the IC50 ([7]; read-out: IC50 of cisplatin) of the same compound?
A: 26.4 to 34.7 µM
